The source of these data is patent US5034402A, “Methods and pharmaceutical compositions using pyrrolidine derivatives” (Hoffmann-La Roche Inc., priority 1981, dated 1991).

Data set [1] is described as follows: acute toxicity, single oral administration to mice. As to conditions: mouse, in vivo. The source says:
Moreover, the Table contains data concerning the acute toxicity (LD50 in mg/kg in the case of single oral administration to mice).

Another data set has as its system short-time memory. As to the kind of experiment: passive avoidance response in the Skinner box; reversal of scopolamine-induced blocking of short-time memory. The data set is classed as in vivo, rats. The source says: The test apparatus is a "Skinner box" with an electrifiable grid floor (30×40 cm) and a grey plastic platform (15×15×0.8 cm) in the front right corner. Untrained male rats (100-120 g) are placed individually on the platform. As soon as they climb down on to the grid floor they receive an electric foot-shock (0.8 mA). The normal reaction of untrained rats is thereupon to jump back on to the platform. Since, however, the rats still attempt to climb down again, the foot-shock procedure must be repeated three to five times for each animal. After these three to five repetitions per animal, the rats have learned a so-called "passive avoidance response", that is, they no longer attempt to descend to the grid floor, since they know that they are punished when they do so.
Immediately thereafter three groups each comprising 30 animals are set up. The first group receives an injection (i.p.) of 0.3 mg/kg of scopolamine as well as distilled water (2 ml/kg, p.o.). The second group receives an injection (i.p.) of 0.3 mg/kg of scopolamine and an oral dosage of the test substance. The third group receives only distilled water (p.o).
Two (2) hours later each rat is placed once on the platform in the "Skinner box". […] The statistical significance of the difference between the results obtained in the first and in the second groups is determined by means of the Chi-Square Test. […]

Structures are written as SMILES. Some results are limits rather than exact numbers.

Take `C[C@@H]1CCC[C@H](C)N1CCNC(=O)CN1CCC(O)C1=O` (mixture of isomers) [Compound A, (R/S)-cis-N-[2-(2,6-dimethyl-1-piperidinyl)ethyl]-2-(3-hydroxy-2-oxo-1-pyrrolidinyl)acetamide]: the 50% lethal dose (LD50) in data set [1] was over 5000 mg/kg.
In data set [1], `NC(=O)CN1CCC(O)C1=O` (racemic) [Compound D, (R/S)-2-(3-hydroxy-2-oxo-1-pyrrolidinyl)acetamide] had an LD50 of over 5000 mg/kg.
Consider `CC(C)N(CCNC(=O)CN1CCC(O)C1=O)C(C)C` (racemic) [Compound E, (R/S)-N-[2-(diisopropylamino)ethyl]-2-(3-hydroxy-2-oxo-1-pyrrolidinyl)-acetamide], for which the 50% lethal dose (LD50) in data set [1] was over 5000 mg/kg. For the same compound, the Significant active dosage with short-time memory (oral dosage significantly active against scopolamine (0.3 mg/kg i.p.), assessed 2 hours later, Chi-Square Test, each listed dosage was active) stood at 3 mg/kg p.o.
In turn, `NC(=O)CN1CC[C@H](O)C1=O` [Compound B, (S)-(-)-2-(3-hydroxy-2-oxo-1-pyrrolidinyl)acetamide] yielded an LD50 in data set [1] of over 5000 mg/kg.
Same read-out and setting: under `NC(=O)CN1CC[C@@H](O)C1=O` [Compound C, (R)-(+)-2-(3-hydroxy-2-oxo-1-pyrrolidinyl)acetamide] stands over 5000 mg/kg.
Turning to `CN1[C@@H]2C[C@@H](OC(=O)[C@H](CO)c3ccccc3)C[C@H]1[C@@H]1O[C@@H]12` [scopolamine, reference compound], in the data set on short-time memory (scopolamine 0.3 mg/kg i.p. and distilled water p.o., during 3-4 hours), the “animals with retrograde effect on the short-time memory” value was 85-92%.

A word on the LD50: it is the dose at which mortality reaches 50%.
